Results on 21 molecules are retold here after patent publication US8969360B2, “Compounds useful as inhibitors of ATR kinase” (Vertex Pharmaceuticals Incorporated, priority 2013, dated 2015).

One experiment addresses T1, ATR kinase (Homo sapiens, UniProt Q13535).
T1 construct: Assays were carried out at 25° C. in the presence of 5 nM full-length ATR
Put plainly: ATR Inhibition Assay (radioactive-phosphate incorporation). As to conditions: Ki(app); 5 nM full-length ATR, 10 μM ATP, 800 μM target peptide, 25° C. The experiment is classed as biochemical. The method, then:
Compounds were screened for their ability to inhibit ATR kinase using a radioactive-phosphate incorporation assay. Assays were carried out in a mixture of 50 mM Tris/HCl (pH 7.5), 10 mM MgCl2 and 1 mM DTT. Final substrate concentrations were 10 μM [γ-33P]ATP (3 mCi 33P ATP/mmol ATP, Perkin Elmer) and 800 μM target peptide (ASELPASQPQPFSAKKK (SEQ. ID NO: 1)).
Assays were carried out at 25° C. in the presence of 5 nM full-length ATR. An assay stock buffer solution was prepared containing all of the reagents listed above, with the exception of ATP and the test compound of interest. 13.5 μL of the stock solution was placed in a 96 well plate followed by addition of 2 μL of DMSO stock containing serial dilutions of the test compound (typically starting from a final concentration of 15 μM with 3-fold serial dilutions) in duplicate (final DMSO concentration 7%). The plate was pre-incubated for 10 minutes at 25° C. and the reaction initiated by addition of 15 μL [γ-33P]ATP (final concentration 10 μM).
The reaction was stopped after […] by the addition of 30 μL, 0.1M phosphoric acid containing 2 mM ATP. A multiscreen phosphocellulose filter 96-well plate (Millipore, Cat no. MAPHN0B50) was pretreated with 100 μL 0.2M phosphoric acid prior to the addition of 45 μL of the stopped assay mixture. The plate was washed with 5×200 μL 0.2M phosphoric acid. After drying, 100 μL Optiphase ‘SuperMix’ liquid scintillation cocktail (Perkin Elmer) was added to the well prior to scintillation counting (1450 Microbeta Liquid Scintillation Counter, Wallac).
After removing mean background values for all of the data points, Ki(app) data were calculated from non-linear regression analysis of the initial rate data using the Prism software package (GraphPad Prism version 3.0cx for Macintosh, GraphPad Software, San Diego Calif., USA).
Compounds with a Ki value of <0.01 μM are marked with “+++.” Compounds with a Ki value >0.01 μM but <1 μM are marked with “++.” Compounds with a Ki value >1 μM but <5 μM are marked with “+.”

Experiment [1] deals with HCT116 colorectal cancer cells. Put plainly: Cisplatin Sensitization Assay (96 h cell viability MTS). Type of experiment: cell-based. As to conditions: concentration of compound required to reduce the IC50 of Cisplatin alone by at least 3-fold; HCT116, 96 h MTS. How it is done:
Compounds can be screened for their ability to sensitize HCT116 colorectal cancer cells to Cisplatin using a 96 h cell viability (MTS) assay. […] Compounds and Cisplatin are then both added simultaneously to the cell media in 2-fold serial dilutions from a top final concentration of 10 μM as a full matrix of concentrations in a final cell volume of 200 μl, and the cells are then incubated at 37° C. in 5% CO2. After 96 h, 40 μl of MTS reagent (Promega G358a) is added to each well and the cells are incubated for 1 h at 37° C. in 5% CO2. Finally, absorbance is measured at 490 nm using a SpectraMax Plus 384 reader (Molecular Devices) and the concentration of compound required to reduce the IC50 of Cisplatin alone by at least 3-fold (to 1 decimal place) can be reported.
Compounds with a Cisplatin sensitization value of <0.02 μM are marked with “+++.” Compounds with a Cisplatin sensitization value>0.02 μM but <0.2 μM are marked with “++.” Compounds with a Cisplatin sensitization value >0.2 μM but <5 μM are marked with “+.”

T1 sequence (Q13535 whole entry): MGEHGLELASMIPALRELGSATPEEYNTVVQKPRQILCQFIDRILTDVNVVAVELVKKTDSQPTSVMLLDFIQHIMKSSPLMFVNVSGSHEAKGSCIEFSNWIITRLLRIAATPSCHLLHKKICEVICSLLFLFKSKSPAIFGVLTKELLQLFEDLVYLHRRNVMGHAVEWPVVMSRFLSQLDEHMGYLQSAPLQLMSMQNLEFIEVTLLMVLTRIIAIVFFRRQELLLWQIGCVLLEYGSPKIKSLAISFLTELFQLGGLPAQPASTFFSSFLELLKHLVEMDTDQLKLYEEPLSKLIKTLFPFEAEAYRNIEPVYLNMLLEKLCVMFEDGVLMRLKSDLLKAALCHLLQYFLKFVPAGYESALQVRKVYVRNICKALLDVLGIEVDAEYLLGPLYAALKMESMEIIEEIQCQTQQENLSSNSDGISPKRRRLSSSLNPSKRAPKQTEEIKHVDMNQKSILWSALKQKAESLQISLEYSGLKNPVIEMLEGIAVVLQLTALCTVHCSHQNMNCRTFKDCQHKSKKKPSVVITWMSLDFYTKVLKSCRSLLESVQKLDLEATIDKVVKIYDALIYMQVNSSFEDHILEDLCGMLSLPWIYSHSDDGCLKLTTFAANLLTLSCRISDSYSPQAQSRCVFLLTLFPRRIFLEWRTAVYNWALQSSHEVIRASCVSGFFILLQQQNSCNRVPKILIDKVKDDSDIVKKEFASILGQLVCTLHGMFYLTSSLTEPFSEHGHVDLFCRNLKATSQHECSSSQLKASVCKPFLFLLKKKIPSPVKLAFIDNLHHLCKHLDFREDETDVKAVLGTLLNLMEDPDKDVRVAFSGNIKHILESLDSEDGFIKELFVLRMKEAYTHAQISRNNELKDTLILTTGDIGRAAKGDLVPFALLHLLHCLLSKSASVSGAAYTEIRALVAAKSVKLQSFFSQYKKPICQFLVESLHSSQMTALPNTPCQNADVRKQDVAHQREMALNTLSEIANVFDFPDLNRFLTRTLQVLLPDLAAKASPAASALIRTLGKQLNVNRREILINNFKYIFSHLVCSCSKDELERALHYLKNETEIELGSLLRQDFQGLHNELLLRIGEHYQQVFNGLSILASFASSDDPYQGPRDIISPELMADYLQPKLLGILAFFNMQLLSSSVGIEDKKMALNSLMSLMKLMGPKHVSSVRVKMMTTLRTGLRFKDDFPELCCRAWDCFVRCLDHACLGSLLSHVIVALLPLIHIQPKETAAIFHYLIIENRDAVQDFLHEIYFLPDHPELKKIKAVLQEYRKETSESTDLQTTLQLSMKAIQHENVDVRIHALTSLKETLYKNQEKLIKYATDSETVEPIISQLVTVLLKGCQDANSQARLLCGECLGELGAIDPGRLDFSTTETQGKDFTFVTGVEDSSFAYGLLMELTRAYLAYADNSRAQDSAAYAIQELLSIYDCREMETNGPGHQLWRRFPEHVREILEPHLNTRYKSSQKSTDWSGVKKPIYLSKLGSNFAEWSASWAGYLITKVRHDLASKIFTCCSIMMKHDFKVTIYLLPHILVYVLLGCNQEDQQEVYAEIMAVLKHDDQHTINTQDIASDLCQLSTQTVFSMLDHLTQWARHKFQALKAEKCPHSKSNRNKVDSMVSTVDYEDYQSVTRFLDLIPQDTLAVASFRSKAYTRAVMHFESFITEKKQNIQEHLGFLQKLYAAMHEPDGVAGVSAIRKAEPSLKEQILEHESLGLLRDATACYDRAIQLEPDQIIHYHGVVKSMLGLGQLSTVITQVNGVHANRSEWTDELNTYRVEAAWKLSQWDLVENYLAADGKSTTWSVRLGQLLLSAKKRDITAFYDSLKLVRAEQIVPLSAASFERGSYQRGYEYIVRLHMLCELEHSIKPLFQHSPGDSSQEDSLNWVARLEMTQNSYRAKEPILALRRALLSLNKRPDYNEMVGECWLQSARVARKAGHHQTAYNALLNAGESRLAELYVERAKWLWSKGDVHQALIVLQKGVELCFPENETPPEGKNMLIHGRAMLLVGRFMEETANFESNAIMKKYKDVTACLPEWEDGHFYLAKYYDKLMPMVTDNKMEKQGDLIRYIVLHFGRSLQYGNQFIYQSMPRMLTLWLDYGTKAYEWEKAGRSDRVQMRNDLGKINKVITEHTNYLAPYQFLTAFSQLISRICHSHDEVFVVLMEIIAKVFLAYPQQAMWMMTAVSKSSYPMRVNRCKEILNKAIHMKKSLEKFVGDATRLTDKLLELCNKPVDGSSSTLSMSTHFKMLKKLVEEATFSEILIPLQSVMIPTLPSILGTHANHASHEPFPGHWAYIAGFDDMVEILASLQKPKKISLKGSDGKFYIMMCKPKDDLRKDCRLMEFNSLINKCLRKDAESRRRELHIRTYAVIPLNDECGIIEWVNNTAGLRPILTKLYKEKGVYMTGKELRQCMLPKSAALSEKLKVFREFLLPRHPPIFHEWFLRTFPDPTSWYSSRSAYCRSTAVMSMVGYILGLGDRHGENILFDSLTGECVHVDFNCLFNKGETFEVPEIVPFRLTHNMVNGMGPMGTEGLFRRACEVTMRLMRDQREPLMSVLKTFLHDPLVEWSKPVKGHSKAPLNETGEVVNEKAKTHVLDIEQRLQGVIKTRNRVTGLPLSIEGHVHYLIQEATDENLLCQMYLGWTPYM

`COc1cc(Cl)ncc1NC(=O)c1c(N)nn2ccc(C(F)(F)F)nc12` [I-O-47, 2-amino-N-(6-chloro-4-methoxypyridin-3-yl)-5-(trifluoromethyl)pyrazolo[1,5-a]pyrimidine-3-carboxamide]: the Ki on ATR kinase is 0.01 to 1 µM. In experiment [1], the “Synergy with Cisplatin” value is recorded as “++ (Compounds with a Cisplatin sensitization value>0.02 μM but <0.2 μM are marked with “++.”)”.
In the same order, the values of `CN(C)[C@H]1C[C@@H](Oc2ccncc2NC(=O)c2c(N)nn3ccc(C(F)(F)F)nc23)C1` [I-O-34, 2-amino-N-(4-((1s,3s)-3-(dimethylamino)cyclobutoxy)pyridin-3-yl)-5-(trifluoromethyl)pyrazolo[1,5-a]pyrimidine-3-carboxamide] are 0.01 to 1 µM and “++ (Compounds with a Cisplatin sensitization value>0.02 μM but <0.2 μM are marked with “++.”)”.
As to `Nc1nn2ccc(C(F)(F)F)nc2c1C(=O)Nc1cnccc1OC1CC2(CNC2)C1` [I-O-32, N-(4-(2-azaspiro[3.3]heptan-6-yloxy)pyridin-3-yl)-2-amino-5-(trifluoromethyl)pyrazolo[1,5-a]pyrimidine-3-carboxamide], on ATR kinase, the Ki lay in the range of 0.01 to 1 µM. Moreover, the “Synergy with Cisplatin” value in experiment [1] is on record as “++ (Compounds with a Cisplatin sensitization value>0.02 μM but <0.2 μM are marked with “++.”)”.
Consider `Nc1nn2ccc(C(F)(F)F)nc2c1C(=O)Nc1cnccc1OC1CC2(CCN2)C1` (stereo not shown) [I-O-24, N-(4-((4r,6s)-1-azaspiro[3.3]heptan-6-yloxy)pyridin-3-yl)-2-amino-5-(trifluoromethyl)pyrazolo[1,5-a]pyrimidine-3-carboxamide], for which the Ki on ATR kinase was in the range of 0.01 to 1 µM. Also, in experiment [1], the “Synergy with Cisplatin” value was “+++ (Compounds with a Cisplatin sensitization value of <0.02 μM are marked with “+++.”)”.
For `Nc1nn2ccc(C(F)(F)F)nc2c1C(=O)Nc1cnccc1OC1CCOCC1` [I-O-11, 2-amino-N-(4-((tetrahydro-2H-pyran-4-yl)oxy)pyridin-3-yl)-5-(trifluoromethyl)pyrazolo[1,5-a]pyrimidine-3-carboxamide], at ATR kinase, the Ki was 0.01 to 1 µM. Besides, the “Synergy with Cisplatin” value in experiment [1] is recorded as “+++ (Compounds with a Cisplatin sensitization value of <0.02 μM are marked with “+++.”)”.
Take `CCOc1ccncc1NC(=O)c1c(N)nn2ccc(C(F)(F)F)nc12` [I-O-2, 2-amino-N-(4-ethoxypyridin-3-yl)-5-(trifluoromethyl)pyrazolo[1,5-a]pyrimidine-3-carboxamide]: the Ki on ATR kinase was < 0.01 µM. For the same molecule, the “Synergy with Cisplatin” value in experiment [1] is given as “+++ (Compounds with a Cisplatin sensitization value of <0.02 μM are marked with “+++.”)”.
In the same order, the values of `COc1ccncc1NC(=O)c1c(N)nn2ccc(OC3CCCN(C)C3)nc12` (stereo not shown) [I-O-58, 2-amino-N-(4-methoxypyridin-3-yl)-5-((1-methylpiperidin-3-yl)oxy)pyrazolo[1,5-a]pyrimidine-3-carboxamide] are 0.01 to 1 µM and “++ (Compounds with a Cisplatin sensitization value>0.02 μM but <0.2 μM are marked with “++.”)”.
With `Nc1nn2ccc(C(F)(F)F)nc2c1C(=O)Nc1cnccc1-c1ccccc1` [I-C-2, 2-amino-N-(4-phenylpyridin-3-yl)-5-(trifluoromethyl)pyrazolo[1,5-a]pyrimidine-3-carboxamide], the Ki on ATR kinase was 0.01 to 1 µM. In experiment [1], the “Synergy with Cisplatin” value is reported as “+ (Compounds with a Cisplatin sensitization value >0.2 μM but <5 μM are marked with “+.”)”.
In the case of `Cc1ccncc1NC(=O)c1c(N)nn2ccc(C(F)(F)F)nc12` [I-C-1, 2-amino-N-(4-methylpyridin-3-yl)-5-(trifluoromethyl)pyrazolo[1,5-a]pyrimidine-3-carboxamide], on ATR kinase, the Ki was in the range of 0.01 to 1 µM. Further, the “Synergy with Cisplatin” value in experiment [1] is listed as “++ (Compounds with a Cisplatin sensitization value>0.02 μM but <0.2 μM are marked with “++.”)”.
Regarding `CN(C)CCOc1cc(C(F)(F)F)ncc1NC(=O)c1c(N)nn2ccc(C(F)(F)F)nc12` [I-O-51, 2-amino-N-(4-(2-(dimethylamino)ethoxy)-6-(trifluoromethyl)pyridin-3-yl)-5-(trifluoromethyl)pyrazolo[1,5-a]pyrimidine-3-carboxamide], the Ki on ATR kinase fell in the range of 0.01 to 1 µM. In addition, the “Synergy with Cisplatin” value in experiment [1] is recorded as “+ (Compounds with a Cisplatin sensitization value >0.2 μM but <5 μM are marked with “+.”)”.
Turning to `CN1CCCC(Oc2ccncc2NC(=O)c2c(N)nn3ccc(C(F)(F)F)nc23)C1` (stereo not shown) [I-O-26, 2-amino-N-(4-((1-methylpiperidin-3-yl)oxy)pyridin-3-yl)-5-(trifluoromethyl)pyrazolo[1,5-a]pyrimidine-3-carboxamide], the Ki on ATR kinase lay within 0.01 to 1 µM. The “Synergy with Cisplatin” value in experiment [1] is recorded as “+++ (Compounds with a Cisplatin sensitization value of <0.02 μM are marked with “+++.”)”.
Consider `COc1ccncc1NC(=O)c1c(N)nn2ccc(OC3COC3)nc12` [I-O-56, 2-amino-N-(4-methoxypyridin-3-yl)-5-(oxetan-3-yloxy)pyrazolo[1,5-a]pyrimidine-3-carboxamide], for which the Ki on ATR kinase is 0.01 to 1 µM. In addition, the “Synergy with Cisplatin” value in experiment [1] is recorded as “+++ (Compounds with a Cisplatin sensitization value of <0.02 μM are marked with “+++.”)”.
Turning to `Nc1nn2ccc(C(F)(F)F)nc2c1C(=O)Nc1cnccc1Oc1ccncc1` [I-O-16, 2-amino-N-(4-(pyridin-4-yloxy)pyridin-3-yl)-5-(trifluoromethyl)pyrazolo[1,5-a]pyrimidine-3-carboxamide], at ATR kinase, the Ki was 0.01 to 1 µM. In addition, the “Synergy with Cisplatin” value in experiment [1] was “+ (Compounds with a Cisplatin sensitization value >0.2 μM but <5 μM are marked with “+.”)”.
With `CC(C)(C#N)c1ccn2nc(N)c(C(=O)Nc3cnccc3OC3CNC3)c2n1` [I-O-53, 2-amino-N-(4-(azetidin-3-yloxy)pyridin-3-yl)-5-(2-cyanopropan-2-yl)pyrazolo[1,5-a]pyrimidine-3-carboxamide], the Ki on ATR kinase lay in the range of 0.01 to 1 µM.
Same read-out and setting: in the case of `CNC1CCN(c2ccn3nc(N)c(C(=O)Nc4cnccc4OC)c3n2)C1` (stereo not shown) [I-O-81, 2-amino-N-(4-methoxypyridin-3-yl)-5-(3-(methylamino)pyrrolidin-1-yl)pyrazolo[1,5-a]pyrimidine-3-carboxamide] it was 0.01 to 1 µM.
As to `COc1ccncc1NC(=O)c1c(N)nn2ccc(N3CC4(COC4)C3)nc12` [I-O-69, 2-amino-N-(4-methoxypyridin-3-yl)-5-(2-oxa-6-azaspiro[3.3]heptan-6-yl)pyrazolo[1,5-a]pyrimidine-3-carboxamide], the Ki at ATR kinase lay within 0.01 to 1 µM.
The same measure, in the same setting: in the case of `NCC1CCN(c2ccncc2NC(=O)c2c(N)nn3ccc(C(F)(F)F)nc23)CC1` [I-N-2, 2-amino-N-(4-(4-(aminomethyl)piperidin-1-yl)pyridin-3-yl)-5-(trifluoromethyl)pyrazolo[1,5-a]pyrimidine-3-carboxamide] it was 0.01 to 1 µM; in that of `Nc1nn2ccc(C(F)(F)F)nc2c1C(=O)Nc1cnccc1OC1CCC2(CC1)OCCO2` [I-O-7, N-(4-(1,4-dioxaspiro[4.5]decan-8-yloxy)pyridin-3-yl)-2-amino-5-(trifluoromethyl)pyrazolo[1,5-a]pyrimidine-3-carboxamide], 0.01 to 1 µM.
Regarding `Nc1nn2ccc(C(F)(F)F)nc2c1C(=O)Nc1cnccc1OC1CN2CCC1CC2` (stereo not shown) [I-O-29, 2-amino-N-(4-(quinuclidin-3-yloxy)pyridin-3-yl)-5-(trifluoromethyl)pyrazolo[1,5-a]pyrimidine-3-carboxamide], the Ki on ATR kinase is 0.01 to 1 µM.
In the case of `CN1CC(Oc2ccncc2NC(=O)c2c(N)nn3ccc(C(F)(F)F)nc23)C1` [I-O-39, 2-amino-N-(4-((1-methylazetidin-3-yl)oxy)pyridin-3-yl)-5-(trifluoromethyl)pyrazolo[1,5-a]pyrimidine-3-carboxamide], the Ki at ATR kinase was in the range of 0.01 to 1 µM.
As for `Nc1nn2ccc(C(F)(F)F)nc2c1C(=O)Nc1cnccc1N1CCN(CCO)CC1` [I-N-3, 2-amino-N-(4-(4-(2-hydroxyethyl)piperazin-1-yl)pyridin-3-yl)-5-(trifluoromethyl)pyrazolo[1,5-a]pyrimidine-3-carboxamide], the Ki at ATR kinase was 0.01 to 1 µM.
